According to ChEMBL document CHEMBL4359919, “Discovery and synthesis of 3- and 21-substituted fusidic acid derivatives as reversal agents of P-glycoprotein-mediated multidrug resistance” (Eur J Med Chem, 2019):
Activity calls are given as the source filed them. No cut-off for these calls is given here.

Experiments:
[1] = target: T1, ATP-dependent translocase ABCB1 (Homo sapiens, UniProt P08183); assay: Stimulation of P-gp ATPase activity (unknown origin) assessed as increase in ATP consumption at 0.5 to 1 mM preincubated for 5 mins followed by Mg-ATP addition by P-gp-Glo luminescence assay
T1 sequence (P08183 whole entry): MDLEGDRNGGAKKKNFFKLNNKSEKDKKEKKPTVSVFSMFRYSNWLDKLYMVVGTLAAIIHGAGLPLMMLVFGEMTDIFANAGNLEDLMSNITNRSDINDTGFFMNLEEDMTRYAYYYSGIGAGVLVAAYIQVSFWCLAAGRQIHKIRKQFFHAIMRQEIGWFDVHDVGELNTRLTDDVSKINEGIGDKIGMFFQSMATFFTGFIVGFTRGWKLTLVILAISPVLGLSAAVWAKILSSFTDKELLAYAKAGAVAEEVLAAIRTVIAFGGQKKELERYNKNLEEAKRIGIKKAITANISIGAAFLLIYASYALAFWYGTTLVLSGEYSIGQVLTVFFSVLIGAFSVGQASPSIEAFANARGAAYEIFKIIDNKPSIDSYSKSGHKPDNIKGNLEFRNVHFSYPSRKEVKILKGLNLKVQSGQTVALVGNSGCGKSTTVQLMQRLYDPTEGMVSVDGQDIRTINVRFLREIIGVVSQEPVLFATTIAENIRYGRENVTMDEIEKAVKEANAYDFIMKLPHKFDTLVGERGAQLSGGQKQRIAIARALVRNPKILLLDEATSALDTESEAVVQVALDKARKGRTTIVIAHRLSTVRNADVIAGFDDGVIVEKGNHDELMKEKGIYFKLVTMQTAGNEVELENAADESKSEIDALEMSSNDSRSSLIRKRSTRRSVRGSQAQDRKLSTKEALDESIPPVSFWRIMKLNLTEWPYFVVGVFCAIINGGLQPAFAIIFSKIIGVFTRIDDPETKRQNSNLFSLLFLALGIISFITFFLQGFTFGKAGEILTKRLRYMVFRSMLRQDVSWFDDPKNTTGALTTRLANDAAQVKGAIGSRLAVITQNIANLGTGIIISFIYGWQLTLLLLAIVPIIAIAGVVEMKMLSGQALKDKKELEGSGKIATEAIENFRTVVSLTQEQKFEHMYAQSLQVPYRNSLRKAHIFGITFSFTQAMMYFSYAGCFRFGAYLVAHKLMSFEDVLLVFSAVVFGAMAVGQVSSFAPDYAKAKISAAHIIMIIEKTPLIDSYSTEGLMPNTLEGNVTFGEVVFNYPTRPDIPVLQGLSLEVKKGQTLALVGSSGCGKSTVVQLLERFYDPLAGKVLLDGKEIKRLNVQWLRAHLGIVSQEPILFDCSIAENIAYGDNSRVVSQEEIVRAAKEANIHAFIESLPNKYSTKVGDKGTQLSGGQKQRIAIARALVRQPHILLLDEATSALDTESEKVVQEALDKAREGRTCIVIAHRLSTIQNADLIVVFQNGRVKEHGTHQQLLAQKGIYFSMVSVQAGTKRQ

Homo sapiens = organism: Homo sapiens; assay: Downregulation of P-gp protein expression in human KBV cells at 5 to 10 uM after 24 hrs by western blot analysis; format: functional, cell-based
[2] = target: T1, ATP-dependent translocase ABCB1; assay: Inhibition of P-gp-mediated Flutax1 efflux in human KBV cells assessed as Flutax1 accumulation at 2 to 10 uM preincubated for 3 hrs followed by Flutax1 addition measured after 1 hr by flow cytometry; format: cell-based
[3] = target: T1, ATP-dependent translocase ABCB1; assay: Reversal of P-gp-mediated multidrug resistance in human KBV cells assessed as potentiation of paclitaxel-induced cytotoxicity by measuring cell survival at 5 uM after 72 hrs by MTT assay (reference value: 100.58 +/- 7.78%); format: cell-based
[4] = target: T1, ATP-dependent translocase ABCB1; assay: Reversal of P-gp-mediated multidrug resistance in human KBV cells assessed as potentiation of paclitaxel-induced apoptosis after 24 hrs by RNase/propidium iodide staining based flow cytometry; format: cell-based
[5] = Cytotoxicity against human KBV cells assessed as cell survival at 5 uM after 72 hrs by MTT assay relative to control; format: cell-based; details: read-out: Survival
[6] = target: T1, ATP-dependent translocase ABCB1; assay: Reversal of P-gp-mediated multidrug resistance in human KBV cells assessed as potentiation of paclitaxel-induced cell cycle arrest by measuring accumulation at G2/M phase at 5 to 10 uM after 24 hrs by RNase/propidium iodide staining based flow cytometry
[7] = target: T1, ATP-dependent translocase ABCB1; assay: Inhibition of P-gp-mediated Rh-123 efflux in human KBV cells assessed as Rh-123 accumulation at 10 uM preincubated for 2 hrs followed by Rh-123 addition measured after 30 mins by flow cytometry; format: cell-based; details: 0.5 h

| Structure (SMILES) | Survival [3] [%] | viability at 72 h, 5 µM [5] [%] | also measured |
| --- | --- | --- | --- |
| CC(=O)O[C@H]1C[C@@]2(C)[C@@H](C[C@@H](O)[C@H]3[C@@]4(C)CC[C@@H](O)[C@@H](C)[C@@H]4CC[C@@]32C)/C1=C(\CCC=C(C)C)C(=O)OCc1ccccc1 | 18.6 | 92 | Activity [1]: Active; Activity (Homo sapiens): inactive; inhibition (INH) [2]: Active; Activity [4]: Active; Activity [6]: Active; inhibition (INH) [7]: Active |
| CC(=O)O[C@H]1C[C@@]2(C)[C@@H](C[C@@H](O)[C@H]3[C@@]4(C)CC[C@@H](OC(=O)c5ccccc5C(=O)Oc5ccc(CCO[N+](=O)[O-])cc5)[C@@H](C)[C@@H]4CC[C@@]32C)/C1=C(\CCC=C(C)C)C(=O)OCc1ccccc1 | 75.04 | 87.5 |  |
| CC(=O)O[C@H]1C[C@@]2(C)[C@@H](C[C@@H](O)[C@H]3[C@@]4(C)CC[C@@H](O)[C@@H](C)[C@@H]4CC[C@@]32C)/C1=C(\CCC=C(C)C)C(=O)Oc1ccc(CCO[N+](=O)[O-])cc1 | 45.82 | 83.7 |  |
| COc1ccc(CCN(C)CCCC(C#N)(c2ccc(OC)c(OC)c2)C(C)C)cc1OC (stereo not given) [VERAPAMIL] | 23.05 |  |  |
| CC(=O)O[C@H]1C[C@@]2(C)[C@@H](C[C@@H](O)[C@H]3[C@@]4(C)CC[C@@H](OC(=O)CCCCO[N+](=O)[O-])[C@@H](C)[C@@H]4CC[C@@]32C)/C1=C(\CCC=C(C)C)C(=O)OCc1ccccc1 | 96.92 | 107 |  |
| CC(=O)O[C@H]1C[C@@]2(C)[C@@H](C[C@@H](O)[C@H]3[C@@]4(C)CC[C@@H](OC(=O)CCCCCO[N+](=O)[O-])[C@@H](C)[C@@H]4CC[C@@]32C)/C1=C(\CCC=C(C)C)C(=O)OCc1ccccc1 | 20.79 | 94.1 |  |
| CC(=O)O[C@H]1C[C@@]2(C)[C@@H](C[C@@H](O)[C@H]3[C@@]4(C)CC[C@@H](OC(=O)c5ccccc5C(=O)Nc5cccc(N)c5)[C@@H](C)[C@@H]4CC[C@@]32C)/C1=C(\CCC=C(C)C)C(=O)OCc1ccccc1 | 29.28 | 95.8 |  |
| CC(=O)O[C@H]1C[C@@]2(C)[C@@H](C[C@@H](O)[C@H]3[C@@]4(C)CC[C@@H](OC(=O)c5ccccc5C(=O)N5CCCCC5)[C@@H](C)[C@@H]4CC[C@@]32C)/C1=C(\CCC=C(C)C)C(=O)OCc1ccccc1 | 36.37 | 110 |  |
| CC(=O)O[C@H]1C[C@@]2(C)[C@@H](C[C@@H](O)[C@H]3[C@@]4(C)CC[C@@H](OC(=O)c5ccccc5C(=O)N5CCOCC5)[C@@H](C)[C@@H]4CC[C@@]32C)/C1=C(\CCC=C(C)C)C(=O)OCc1ccccc1 | 37.96 | 76 |  |
| CC(=O)O[C@H]1C[C@@]2(C)[C@@H](CC(=O)[C@H]3[C@@]4(C)CC[C@@H](OC(=O)CCCCCO[N+](=O)[O-])[C@@H](C)[C@@H]4CC[C@@]32C)/C1=C(\CCC=C(C)C)C(=O)OCc1ccccc1 | 62.17 | 115 |  |
| CCN1CCN(C(=O)CCC(=O)O[C@@H]2CC[C@@]3(C)[C@@H](CC[C@@]4(C)[C@H]3[C@H](O)C[C@H]3/C(=C(\CCC=C(C)C)C(=O)OCc5ccccc5)[C@@H](OC(C)=O)C[C@@]34C)[C@@H]2C)CC1 | 34.43 | 99.8 |  |
| CC(=O)O[C@H]1C[C@@]2(C)[C@@H](C[C@@H](O)[C@H]3[C@@]4(C)CC[C@@H](OC(=O)CCC(=O)OCCc5ccc(OCCO[N+](=O)[O-])cc5)[C@@H](C)[C@@H]4CC[C@@]32C)/C1=C(\CCC=C(C)C)C(=O)OCc1ccccc1 | 101.31 | 110 |  |
| CC(=O)O[C@H]1C[C@@]2(C)[C@@H](CC(=O)[C@H]3[C@@]4(C)CCC(=O)[C@@H](C)[C@@H]4CC[C@@]32C)/C1=C(\CCC=C(C)C)C(=O)OCc1ccccc1 | 27.6 | 96.6 |  |
| CC(=O)O[C@H]1C[C@@]2(C)[C@@H](C[C@@H](O)[C@H]3[C@@]4(C)CC[C@@H](OC(=O)c5ccccc5C(=O)OCCc5ccc(OCCO[N+](=O)[O-])cc5)[C@@H](C)[C@@H]4CC[C@@]32C)/C1=C(\CCC=C(C)C)C(=O)OCc1ccccc1 | 90.45 | 85.9 |  |
| CC(=O)O[C@H]1C[C@@]2(C)[C@@H](CC(=O)[C@H]3[C@@]4(C)CC[C@@H](OC(=O)CCCCO[N+](=O)[O-])[C@@H](C)[C@@H]4CC[C@@]32C)/C1=C(\CCC=C(C)C)C(=O)OCc1ccccc1 | 20.75 | 112 |  |
| CC(=O)O[C@H]1C[C@@]2(C)[C@@H](C[C@@H](O)[C@H]3[C@@]4(C)CC[C@@H](OC(=O)CCC(=O)Oc5ccc(CCO[N+](=O)[O-])cc5)[C@@H](C)[C@@H]4CC[C@@]32C)/C1=C(\CCC=C(C)C)C(=O)OCc1ccccc1 | 99.95 | 114 |  |
| CC(=O)O[C@H]1C[C@@]2(C)[C@@H](C[C@@H](O)[C@H]3[C@@]4(C)CC[C@@H](OC(=O)CCC(=O)Nc5cccc(N)c5)[C@@H](C)[C@@H]4CC[C@@]32C)/C1=C(\CCC=C(C)C)C(=O)OCc1ccccc1 | 24.8 | 135 |  |
| CC(=O)O[C@H]1C[C@@]2(C)[C@@H](C[C@@H](O)[C@H]3[C@@]4(C)CC[C@@H](O)[C@@H](C)[C@@H]4CC[C@@]32C)/C1=C(\CCC=C(C)C)C(=O)O [FUSIDIC ACID] | 87.77 | 84.7 |  |
| CC(=O)O[C@H]1C[C@@]2(C)[C@@H](C[C@@H](O)[C@H]3[C@@]4(C)CC[C@@H](OC(=O)c5ccccc5C(=O)N5CCN(C)CC5)[C@@H](C)[C@@H]4CC[C@@]32C)/C1=C(\CCC=C(C)C)C(=O)OCc1ccccc1 | 69.5 | 100 |  |
| CC(=O)O[C@H]1C[C@@]2(C)[C@@H](C[C@@H](O)[C@H]3[C@@]4(C)CC[C@@H](OC(=O)CCC(=O)N5CCOCC5)[C@@H](C)[C@@H]4CC[C@@]32C)/C1=C(\CCC=C(C)C)C(=O)OCc1ccccc1 | 31.93 | 20.5 |  |
| CC(=O)O[C@H]1C[C@@]2(C)[C@@H](C[C@@H](O)[C@H]3[C@@]4(C)CC[C@@H](OC(=O)CCC(=O)N5CCCCC5)[C@@H](C)[C@@H]4CC[C@@]32C)/C1=C(\CCC=C(C)C)C(=O)OCc1ccccc1 | 35.31 | 122 |  |
| CC(=O)O[C@H]1C[C@@]2(C)[C@@H](C[C@@H](O)[C@H]3[C@@]4(C)CC[C@@H](OC(=O)CCC(=O)Nc5ccc(N)cc5)[C@@H](C)[C@@H]4CC[C@@]32C)/C1=C(\CCC=C(C)C)C(=O)OCc1ccccc1 | 22.26 | 136 |  |
| CCN1CCN(C(=O)c2ccccc2C(=O)O[C@@H]2CC[C@@]3(C)[C@@H](CC[C@@]4(C)[C@H]3[C@H](O)C[C@H]3/C(=C(\CCC=C(C)C)C(=O)OCc5ccccc5)[C@@H](OC(C)=O)C[C@@]34C)[C@@H]2C)CC1 | 20.76 | 27.3 |  |
| CC(=O)O[C@H]1C[C@@]2(C)[C@@H](C[C@@H](O)[C@H]3[C@@]4(C)CC[C@@H](OC(=O)c5ccccc5C(=O)Nc5ccc(N)cc5)[C@@H](C)[C@@H]4CC[C@@]32C)/C1=C(\CCC=C(C)C)C(=O)OCc1ccccc1 | 23.58 | 118 |  |
| CC(=O)O[C@H]1C[C@@]2(C)[C@@H](C[C@@H](O)[C@H]3[C@@]4(C)CC[C@@H](OC(=O)CCC(=O)N5CCN(C)CC5)[C@@H](C)[C@@H]4CC[C@@]32C)/C1=C(\CCC=C(C)C)C(=O)OCc1ccccc1 | 33.67 | 30.1 |  |
